In experiment [1] the target is BDNF/NT-3 growth factors receptor (Homo sapiens) (UniProt Q16620). The experiment can be described thus: Selectivity interaction (Ambit KINOMEscan and KiNATiv profiling in Jurkat cells) EUB0000090b NTRK2. Format: cell-based. As to conditions: at 1 µM.
The target of experiment [2] is T1, Serine/threonine-protein kinase Nek3 (Homo sapiens) (UniProt P51956).
T1 sequence (whole entry): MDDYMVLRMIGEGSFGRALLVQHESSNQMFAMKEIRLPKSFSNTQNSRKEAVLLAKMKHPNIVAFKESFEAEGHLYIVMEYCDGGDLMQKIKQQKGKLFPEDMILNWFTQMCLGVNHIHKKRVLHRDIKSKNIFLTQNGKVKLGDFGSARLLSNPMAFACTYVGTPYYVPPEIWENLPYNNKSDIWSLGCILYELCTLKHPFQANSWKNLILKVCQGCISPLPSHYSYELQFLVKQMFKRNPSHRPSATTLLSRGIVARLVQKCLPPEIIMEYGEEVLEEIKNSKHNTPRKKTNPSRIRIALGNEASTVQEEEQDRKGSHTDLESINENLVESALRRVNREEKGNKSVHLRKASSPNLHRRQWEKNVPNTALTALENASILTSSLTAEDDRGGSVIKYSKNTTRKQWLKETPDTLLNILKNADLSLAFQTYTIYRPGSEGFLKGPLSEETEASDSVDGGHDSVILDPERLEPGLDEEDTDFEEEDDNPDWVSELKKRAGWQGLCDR
The experiment is described as follows: Selectivity interaction (KinomeScan (DiscoverX)) EUB0000655a NEK3. As to conditions: at 10 µM.

The target in experiment [3] is 5-hydroxytryptamine receptor 2B (Homo sapiens, UniProt P41595). The experiment is described as follows: Selectivity interaction (Eurofins safety panel) EUB0001564a HTR2B. Particulars: at 10 µM.
Experiment [4] deals with T2, Homeodomain-interacting protein kinase 4 (Homo sapiens) (UniProt Q8NE63).
T2 sequence (whole entry): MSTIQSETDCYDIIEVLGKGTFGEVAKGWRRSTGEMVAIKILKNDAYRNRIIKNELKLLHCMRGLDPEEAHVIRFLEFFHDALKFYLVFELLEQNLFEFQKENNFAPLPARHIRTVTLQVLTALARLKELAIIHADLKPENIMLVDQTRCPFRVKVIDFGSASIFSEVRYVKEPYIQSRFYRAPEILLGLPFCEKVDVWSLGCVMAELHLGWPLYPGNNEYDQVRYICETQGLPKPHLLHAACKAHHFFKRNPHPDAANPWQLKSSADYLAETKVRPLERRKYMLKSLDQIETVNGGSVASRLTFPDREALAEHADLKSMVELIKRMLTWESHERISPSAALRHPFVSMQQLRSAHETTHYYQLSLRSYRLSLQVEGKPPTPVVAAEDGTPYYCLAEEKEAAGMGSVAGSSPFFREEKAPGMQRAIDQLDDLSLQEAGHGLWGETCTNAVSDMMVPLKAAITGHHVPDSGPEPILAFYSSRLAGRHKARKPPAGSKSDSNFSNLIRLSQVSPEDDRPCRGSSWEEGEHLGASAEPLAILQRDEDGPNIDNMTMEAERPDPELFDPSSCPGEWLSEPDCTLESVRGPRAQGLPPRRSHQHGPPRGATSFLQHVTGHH
The experiment is described as follows: Selectivity interaction (Kinase panel (Z-LYTE Assay)) EUB0001632a HIPK4. Particulars: at 10 µM.

Experiment [5] concerns the target Glycogen synthase kinase-3 alpha (Homo sapiens, UniProt P49840). The experiment is described as follows: Selectivity interaction (KinomeScan (DiscoverX)) EUB0000595a GSK3A. Particulars: at 10 µM.
Experiment [6] concerns the target Calcium/calmodulin-dependent protein kinase type II subunit delta (Homo sapiens) (UniProt Q13557). The experiment is described as follows: Selectivity interaction (ActivX KiNativ screen (ex vivo kinase selectivity in human PBMCs)) EUB0001619a CAMK2D. The class given is cell-based. Particulars: PBMC, at 1 µM.
Experiment [7] concerns the target T3, Mitogen-activated protein kinase kinase kinase 3 (Homo sapiens) (UniProt Q99759).
T3 sequence (whole entry): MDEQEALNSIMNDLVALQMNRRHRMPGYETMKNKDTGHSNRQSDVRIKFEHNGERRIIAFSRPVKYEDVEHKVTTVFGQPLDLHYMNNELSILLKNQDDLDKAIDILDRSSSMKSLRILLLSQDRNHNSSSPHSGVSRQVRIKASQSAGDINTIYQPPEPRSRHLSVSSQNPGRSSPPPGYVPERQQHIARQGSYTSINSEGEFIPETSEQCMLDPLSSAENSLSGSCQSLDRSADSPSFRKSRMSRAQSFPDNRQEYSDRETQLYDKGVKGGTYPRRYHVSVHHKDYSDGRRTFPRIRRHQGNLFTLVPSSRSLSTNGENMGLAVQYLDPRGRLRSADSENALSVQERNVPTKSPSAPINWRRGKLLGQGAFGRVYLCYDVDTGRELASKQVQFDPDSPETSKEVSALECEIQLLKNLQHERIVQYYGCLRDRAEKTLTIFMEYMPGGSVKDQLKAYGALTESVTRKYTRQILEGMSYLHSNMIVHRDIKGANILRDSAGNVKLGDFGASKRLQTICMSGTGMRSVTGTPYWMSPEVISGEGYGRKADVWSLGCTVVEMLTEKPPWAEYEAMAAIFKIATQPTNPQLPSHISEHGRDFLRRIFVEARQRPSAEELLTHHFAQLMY
The experiment can be described thus: Selectivity interaction (ActivX KiNativ screen (ex vivo kinase selectivity in human PBMCs)) EUB0001619a MAP3K3. Particulars: PBMC, at 1 µM. The class given is cell-based.

Experiment [8] deals with Ribosomal protein S6 kinase alpha-3 (Homo sapiens, UniProt P51812). The experiment is described as follows: Selectivity interaction (ActivX KiNativ screen (ex vivo kinase selectivity in human PBMCs)) EUB0001619a RPS6KA3. As to conditions: PBMC, at 1 µM. Format: cell-based.

In ChEMBL document CHEMBL5465560, “Selectivity Literature for EUbOPEN Chemogenomic Library” (2024) one finds % of control and % of inhibition data, which are given here for six compounds.

Chain of 5-hydroxytryptamine receptor 2B (P41595 whole entry): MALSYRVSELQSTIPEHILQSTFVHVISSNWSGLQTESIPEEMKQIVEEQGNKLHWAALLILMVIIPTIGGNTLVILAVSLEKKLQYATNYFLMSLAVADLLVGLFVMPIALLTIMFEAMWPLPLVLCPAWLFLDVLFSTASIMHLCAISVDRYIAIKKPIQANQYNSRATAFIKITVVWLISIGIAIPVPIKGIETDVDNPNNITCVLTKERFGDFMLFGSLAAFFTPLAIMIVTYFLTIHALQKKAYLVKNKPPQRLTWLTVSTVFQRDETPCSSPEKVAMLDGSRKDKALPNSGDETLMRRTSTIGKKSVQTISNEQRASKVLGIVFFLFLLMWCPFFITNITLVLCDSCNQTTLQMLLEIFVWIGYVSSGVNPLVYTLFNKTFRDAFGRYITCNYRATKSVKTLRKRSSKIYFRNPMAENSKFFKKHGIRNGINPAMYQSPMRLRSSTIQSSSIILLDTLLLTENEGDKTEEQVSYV
Chain of Calcium/calmodulin-dependent protein kinase type II subunit delta (Homo sapiens) (Q13557 whole entry): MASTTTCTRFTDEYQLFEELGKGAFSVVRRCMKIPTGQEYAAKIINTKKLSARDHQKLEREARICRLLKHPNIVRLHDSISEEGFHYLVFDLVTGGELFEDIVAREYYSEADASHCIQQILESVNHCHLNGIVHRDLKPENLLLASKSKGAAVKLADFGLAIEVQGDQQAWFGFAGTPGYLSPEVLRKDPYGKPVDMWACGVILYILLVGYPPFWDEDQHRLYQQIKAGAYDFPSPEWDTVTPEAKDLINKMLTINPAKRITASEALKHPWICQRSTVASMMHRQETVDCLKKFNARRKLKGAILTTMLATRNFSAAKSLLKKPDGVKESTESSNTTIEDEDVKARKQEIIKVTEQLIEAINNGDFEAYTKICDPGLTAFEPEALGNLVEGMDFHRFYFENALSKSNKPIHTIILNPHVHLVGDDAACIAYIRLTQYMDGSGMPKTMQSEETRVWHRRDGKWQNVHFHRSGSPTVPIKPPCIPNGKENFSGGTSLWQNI
Chain of Ribosomal protein S6 kinase alpha-3 (P51812 whole entry): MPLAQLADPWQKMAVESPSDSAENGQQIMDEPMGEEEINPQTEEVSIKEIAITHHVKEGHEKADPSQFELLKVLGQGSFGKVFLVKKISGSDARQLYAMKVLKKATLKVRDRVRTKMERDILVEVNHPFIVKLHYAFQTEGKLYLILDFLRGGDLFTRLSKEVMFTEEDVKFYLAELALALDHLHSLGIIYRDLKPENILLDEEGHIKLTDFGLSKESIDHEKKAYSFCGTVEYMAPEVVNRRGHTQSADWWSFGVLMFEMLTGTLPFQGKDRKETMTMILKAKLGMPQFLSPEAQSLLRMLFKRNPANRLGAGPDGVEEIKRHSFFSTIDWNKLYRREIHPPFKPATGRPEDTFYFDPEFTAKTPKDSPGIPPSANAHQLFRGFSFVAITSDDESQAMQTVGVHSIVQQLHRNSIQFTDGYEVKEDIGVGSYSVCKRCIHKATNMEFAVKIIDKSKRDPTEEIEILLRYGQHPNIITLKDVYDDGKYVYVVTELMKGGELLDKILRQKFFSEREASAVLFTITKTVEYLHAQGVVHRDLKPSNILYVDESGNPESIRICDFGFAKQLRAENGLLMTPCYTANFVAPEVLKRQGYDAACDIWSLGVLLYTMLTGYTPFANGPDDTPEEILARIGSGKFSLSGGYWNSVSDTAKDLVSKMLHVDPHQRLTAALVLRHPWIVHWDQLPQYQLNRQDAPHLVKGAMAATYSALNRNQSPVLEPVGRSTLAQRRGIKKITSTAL
Chain of BDNF/NT-3 growth factors receptor (Homo sapiens) (Q16620 32-822 limits assumed): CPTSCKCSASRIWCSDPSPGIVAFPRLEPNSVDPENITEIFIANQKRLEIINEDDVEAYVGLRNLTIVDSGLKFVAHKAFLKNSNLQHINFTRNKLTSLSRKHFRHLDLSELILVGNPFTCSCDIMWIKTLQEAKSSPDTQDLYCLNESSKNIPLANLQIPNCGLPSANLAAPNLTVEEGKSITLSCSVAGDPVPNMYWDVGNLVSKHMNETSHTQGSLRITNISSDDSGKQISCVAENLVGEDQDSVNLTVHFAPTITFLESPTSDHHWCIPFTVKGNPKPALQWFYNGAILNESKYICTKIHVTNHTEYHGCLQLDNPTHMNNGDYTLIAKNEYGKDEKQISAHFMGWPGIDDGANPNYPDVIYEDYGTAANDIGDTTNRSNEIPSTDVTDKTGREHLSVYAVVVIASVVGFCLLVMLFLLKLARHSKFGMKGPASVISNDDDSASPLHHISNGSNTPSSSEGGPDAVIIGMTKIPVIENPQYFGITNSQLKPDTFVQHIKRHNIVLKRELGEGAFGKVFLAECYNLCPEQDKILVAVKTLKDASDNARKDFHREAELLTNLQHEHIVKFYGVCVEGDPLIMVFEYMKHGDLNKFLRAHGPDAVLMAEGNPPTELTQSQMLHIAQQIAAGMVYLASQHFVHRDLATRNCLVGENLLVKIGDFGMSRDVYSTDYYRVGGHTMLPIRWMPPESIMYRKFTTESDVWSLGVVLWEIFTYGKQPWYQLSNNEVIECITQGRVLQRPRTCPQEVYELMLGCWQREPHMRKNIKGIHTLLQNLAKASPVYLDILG
Chain of Glycogen synthase kinase-3 alpha (P49840 2-483 limits assumed): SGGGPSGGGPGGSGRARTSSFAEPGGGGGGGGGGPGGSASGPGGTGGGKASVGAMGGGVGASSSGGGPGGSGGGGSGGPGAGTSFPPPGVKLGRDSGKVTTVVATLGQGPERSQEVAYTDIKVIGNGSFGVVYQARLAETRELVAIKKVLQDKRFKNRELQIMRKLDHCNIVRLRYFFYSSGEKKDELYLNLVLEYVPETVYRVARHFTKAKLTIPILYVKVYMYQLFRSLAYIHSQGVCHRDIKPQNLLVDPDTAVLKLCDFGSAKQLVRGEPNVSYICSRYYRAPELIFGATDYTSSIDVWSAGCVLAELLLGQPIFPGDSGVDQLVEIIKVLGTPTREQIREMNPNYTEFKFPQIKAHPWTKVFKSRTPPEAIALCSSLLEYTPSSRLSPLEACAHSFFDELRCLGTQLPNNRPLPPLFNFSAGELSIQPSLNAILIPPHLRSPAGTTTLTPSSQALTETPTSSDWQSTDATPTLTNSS

`CN(C)C/C=C/C(=O)Nc1ccc(C(=O)N2CCCC(Nc3ncc(Cl)c(-c4c[nH]c5ccccc45)n3)C2)cc1` (stereo not drawn) yielded a % of control in experiment [1] of 76%.
Compound `CN(C)CCOc1ccc(-c2nc(-c3ccncc3)c(-c3ccc4c(c3)CC/C4=N\O)[nH]2)cc1` gave a % of control in experiment [2] of 71%.
Regarding `CC[C@@H](Nc1c(C#N)c(-c2ccc(-c3cccc(C)c3F)cc2)nc2cnccc12)C(=O)O` [BAY-091], in experiment [3], the % of inhibition is 98%.
For `Cn1cc(-n2cnc3c(NCc4nc5cc(Cl)c(Cl)cc5[nH]4)nc(N4CCOCC4)nc32)cn1`, the % of control in experiment [4] was determined as 6.45%.
As for `COCC(=O)NC/C=C/c1ccc2ncnc(Nc3ccc(Oc4ccc(C)nc4)c(C)c3)c2c1` [CP-724714], the % of control in experiment [5] amounted to 100%.
As for `N#Cc1cccc(-c2c[nH]c3ncnc(N4CCOCC4)c23)c1`, the figures for the % of inhibition in experiment [6], in experiment [7] and in experiment [8] were -38%, 13% and 21%, respectively.
